# Experimental data published in patent US9816074B2, “Methods and compositions for modulating nuclease-mediated genome engineering in hematopoietic stem cells” (Sangamo BioSciences, Inc., priority 2014, dated 2017).
# Like-named read-outs stand apart in the source and are kept apart here.
# Tests used:
# Assay type in all cases: cell-based
# Human mPB CD34+ cells [1] = experiment: Methylcellulose assays (colony forming units) on CD34+ cell cultures
# Human mPB CD34+ cells [2] = experiment: Cell viability by flow cytometry in the presence of propidium iodide
# Protocol: (§1) No change in culture cell density was seen after VPA addition compared to controls in genome modified mPB HSPCs (FIG. 6F).
# (§2) Human mPB CD34+ cells were cultured ex vivo in CC110 media with or without 100 ng/mL IL-6 in the presence of VPA (1.25 mM or 2.5 mM) and 5 mM lithium chloride (Li) for 4 (blue lines—added at 4 days post thawing of the cells) or 7 days (red line—added at 1 day post thawing).
# Human mPB CD34+ cells [3] = experiment: Cell density / proliferative capacity in culture; details: for cell density / growth (FIG. 3F): extended culture, 17 days
# From the text: as §1
# The presence of IL-6 was capable of enhancing the expression of CD49f with extended culture. […]
# Human mPB CD34+ cells [4] = experiment: Flow cytometry of HSPC multipotency markers (CD34, CD133, CD90, CD49f, CD166, CD38, CD45RA); details: for CD90 expression (FIG. 3A): dmPGE2 10 μM, SR1 1 μM, 17 days, addition 1 day post thawing; for CD49f expression (FIG. 3C) / CD133 expression (FIG. 3B): compared to controls, 17 day culture; for CD34 expression compared to controls (FIG. 3D): for the duration of the experiment (17 days); for CD90 expression (percent of CD90+ cells, FIG. 2A): nicotinamide 2.5 mM, TEPA 5 μM, addition at 1 day post thawing, vs control
# Protocol: Human mPB CD34+ cells were cultured ex vivo in CC110 media for 3 days with or without VPA, nicotinamide or TEPA. Various cell surface markers are enriched on CD34+ subpopulations that contain true LT-HSCs. Measurement of such cell surface markers can therefore be used as a proxy for the number of LT-HSCs in the culture. In particular, CD90, CD133, CD49f, CD38, and CD166 can be used to assay LT-HSC number (Notta et al. (2011) Science 333(6039):218-21; Chitteti et al. (2014) Blood 124(4):519-29), with the LT-HSCs generally residing in the CD90+CD133+CD49f+CD38-low CD166+ pool. Accordingly, cells were stained using fluorescently-tagged antibodies against the HSPC multipotency markers CD34 (PE-Cy7), CD133 (PE), CD90 (APC), and CD49f (PerCP) and analyzed by flow cytometry.
# Human mPB CD34+ cells were cultured ex vivo in CC110 media for 17 days. Cells were then stained using fluorescently-tagged antibodies against the HSPC multipotency markers CD34 (PE-Cy7), CD133 (PE), CD90 (APC), and CD49f (PerCP) and analyzed by flow cytometry as described above.
# Human mPB-derived cells were cultured as described above in the presence or absence of VPA (1.25 mM) and 5 mM lithium chloride (Li) and cells assayed for primitive cell surface markers as described above.
# CD34+ cells were cultured ex vivo in CC110 media with 100 ng/mL IL-6 for 8 days in the presence or absence of VPA, lithium, nucleases and donors. VPA and Li were added prior to nucleases and/or donors (which can be added in any order). Briefly, CD34+ cells were thawed and cultured for approximately […] before addition of VPA and Li and cultured again (e.g., 1-2 days) before addition of a donor. Nucleases (e.g., ZFN mRNA) were added 0.5 to 1 day later and VPA/Li washed out at the same time. After at least a day, cells were then stained using fluorescently-tagged antibodies against the HSPC multipotency markers CD34 (PE-Cy7), CD133 (PE), CD90 (APC), and CD49f (PerCP) and analyzed by flow cytometry.
# CD34+ cells were cultured ex vivo in CC110 media as described above for approximately 6 days in the presence or absence of VPA, lithium, nucleases and donors. VPA and Li were added after to nucleases and/or donors (which can be added in any order). Briefly, CD34+ cells were thawed and cultured for approximately 2-3 days before addition of a donor. Nucleases (e.g., ZFN mRNA) were added 0.5 to 1 day after transfection with the donor. The donor was a SA-IL2RG partial corrective cDNA transgene at IL2RG intron 1 and the zinc-finger nucleases (ZFN) were SBS #s 44271/44298 delivered by BTX electroporation. VPA/Li was added 1 day after addition of the ZFN mRNA. After approximately 3 days, cells were then stained using fluorescently-tagged antibodies against the HSPC multipotency markers CD34 (PE-Cy7), CD133 (PE), CD90 (APC), and CD49f (PerCP) and analyzed by flow cytometry.
# as §2
# The presence of IL-6 was capable of enhancing the expression of CD49f with extended culture. […] In a further experiment, human mPB CD34+ cells were cultured ex vivo in CC110 media in the presence of VPA (1.25 mM) plus LiCl (5 mM) with or without 100 ng/mL IL-6 for 7 days.
# After 7 days in culture cells were stained using fluorescently-tagged antibodies against the HSPC multipotency marker CD166 (PE) and analyzed by flow cytometry. VPA+Li increased the overall fraction of CD166+ cells.
# Human mPB CD34+ cells were cultured ex vivo in CC110 media with 100 ng/mL IL-6 in the presence or absence of VPA (1.25 mM) plus LiCl (5 mM) for 6 days.
# CD34+ cells = experiment: CRISPR/Cas nuclease modification with VPA (as Example 3, CRISPR/Cas in place of ZFNs); details: introduced before, concurrently and/or after the CRISPR/Cas nuclease systems
# Protocol: Experiments are conducted as described in Example 3 using CRISPR/Cas nucleases in place of ZFNs (e.g., specific for any gene such as IL2, HPRT, etc.), with and without donors.
# [5] = 14 days of in vitro differentiation
# [6] = compared to controls after 14 days of in vitro differentiation
# [7] = VPA 1.25 mM added 1 day post thawing
compound,measurement,setting,value
"CC(C)n1cnc2c(NCCc3ccc(O)cc3)nc(-c3csc4ccccc34)nc21 [SR1, StemRegenin 1]",erythroid burst-forming units (BFU-E),Human mPB CD34+ cells [1]; [5],increased
same,granulocyte and megakaryocyte colony-forming units (CFU-GM),Human mPB CD34+ cells [1]; [5],increased
same,cell viability (FIG. 3E),Human mPB CD34+ cells [2],no effect on cell viability
same,cell density / growth (FIG. 3F),Human mPB CD34+ cells [3],slight growth advantage
same,CD90 expression (FIG. 3A),"Human mPB CD34+ cells [4]; VPA 1.25 mM, CC110 media",No effect
same,CD49f expression (FIG. 3C),Human mPB CD34+ cells [4],increased expression compared to both controls and VPA after 17 days in culture
same,CD133 expression (FIG. 3B),Human mPB CD34+ cells [4],decreased expression
same,CD34 expression compared to VPA (FIG. 3D),Human mPB CD34+ cells [4]; extended culture,higher expression
same,CD34 expression compared to controls (FIG. 3D),Human mPB CD34+ cells [4],retained elevated CD34 expression
"NCCNCCNCCNCCN [TEPA, tetraethylenepentamine]","CD90 expression (percent of CD90+ cells, FIG. 2A)",Human mPB CD34+ cells [4]; VPA 1.25 mM,No effect
"CCCC(CCC)C(=O)O [VPA, valproic acid]",myeloid or erythroid differentiation capacity (FIG. 2C),Human mPB CD34+ cells [1]; [6],no significant difference
same,myeloid or erythroid differentiation capacity (FIGS. 3G and 3H),Human mPB CD34+ cells [1]; [6],no significant difference
same,cell viability (FIG. 3E),Human mPB CD34+ cells [2],no loss of cell viability
same,cell viability after VPA addition compared to controls (FIG. 6E),Human mPB CD34+ cells [2],no increased loss of cell viability
same,overall cell viability with VPA,Human mPB CD34+ cells [2],slightly lower viability
same,recovery of cell viability following VPA administration,Human mPB CD34+ cells [2],initial delay in recovery
same,"viability after VPA addition, before genome modification (FIG. 5E)",Human mPB CD34+ cells [2],no decrease in viability
same,viability after genome modification (FIG. 5E),Human mPB CD34+ cells [2],significant viability loss
same,viability after genome modification (FIG. 6E),Human mPB CD34+ cells [2],significant loss of viability
same,CRISPR/Cas induced nuclease modification,CD34+ cells,enhances
same,"cell growth, VPA at day 4 compared to day 1",Human mPB CD34+ cells [3],cell growth advantage
same,cell growth potential at 2.5 mM VPA,Human mPB CD34+ cells [3]; 2.5 mM VPA,decreased cell growth potential
same,initial proliferative capacity,"Human mPB CD34+ cells [3]; Example 6, VPA administration",slightly decreased proliferative capacity
same,proliferative capacity after 7 days in culture,"Human mPB CD34+ cells [3]; Example 6, VPA administration",recovered
same,culture cell density (FIG. 6F),"Human mPB CD34+ cells [3]; after VPA addition compared to controls, genome modified mPB HSPCs",No change
same,cell density / growth (FIG. 3F),Human mPB CD34+ cells [3],slightly decreased proliferative capacity
same,cell growth at lower doses of VPA,Human mPB CD34+ cells [3]; lower doses than 2.5 mM,did not affect cell growth as substantially
same,"level of CD90 expression, VPA added at day 1 vs day 4",Human mPB CD34+ cells [4],higher level
same,marker expression after VPA washout and genome modification,Human mPB CD34+ cells [4]; Example 3C,"retained high CD90, CD34, CD133 and CD49f expression"
same,CD49f expression compared to controls,"Human mPB CD34+ cells [4]; VPA 1.25 mM + LiCl 5 mM, 7 days",increased
same,time to peak of CD90 expression after addition (FIG. 2A),Human mPB CD34+ cells [4]; [7],≤ 2 days
same,time to peak of CD90 expression after addition (FIG. 3A),Human mPB CD34+ cells [4]; [7],≤ 2 days
same,CD90 expression (FIG. 3A),"Human mPB CD34+ cells [4]; VPA 1.25 mM, CC110 media",dramatically increased
same,"CD90 expression (percent of CD90+ cells, FIG. 2A)",Human mPB CD34+ cells [4]; VPA 1.25 mM,dramatically increased
same,fraction of CD34+CD133+CD90+CD49f+ cells,"Human mPB CD34+ cells [4]; VPA 1.25 mM, CC110 media, 3 days, controls 14.4%",85.9%
same,proportion of CD34+CD133+ cells,"Human mPB CD34+ cells [4]; VPA 1.25 mM, CC110 media, 3 days, controls 51.7%",93.1%
same,"level of CD133, CD90 and CD49f expression, VPA added at day 1 vs day 4",Human mPB CD34+ cells [4]; VPA + 5 mM Li,higher level
same,marker expression after VPA washout and genome modification,Human mPB CD34+ cells [4]; addition after extended culture (Example 3B),"retained high CD90, CD34, CD133 and CD49f expression"
same,CD49f expression (FIG. 3C),Human mPB CD34+ cells [4],increased CD49f expression for up to 15 days
same,CD133 expression (FIG. 3B),Human mPB CD34+ cells [4],increased
same,"fraction of cells unresponsive to VPA stimulation between days 1 and 4 post thawing (CD133, CD90 and CD49f expression)",Human mPB CD34+ cells [4]; day 1 vs day 4 addition,~15%
same,"fraction of cells unresponsive to VPA stimulation between days 1 and 4 post thawing, CD49f",Human mPB CD34+ cells [4]; day 1 vs day 4 addition,~15%
same,"fraction of cells unresponsive to VPA stimulation between days 1 and 4 post thawing, CD90",Human mPB CD34+ cells [4]; day 1 vs day 4 addition,~20%
same,"fraction of cells unresponsive to VPA stimulation between days 1 and 4 post thawing, CD133",Human mPB CD34+ cells [4]; day 1 vs day 4 addition,~15%
same,"CD34 expression, VPA added at day 1 vs day 4 post-thawing",Human mPB CD34+ cells [4]; extended culture,increased CD34 expression
same,CD34 expression compared to controls (FIG. 3D),Human mPB CD34+ cells [4],retained elevated CD34 expression
same,dose dependence of CD49f expression,Human mPB CD34+ cells [4]; increasing VPA,No significant dose dependence
same,dose dependence of CD90 expression,Human mPB CD34+ cells [4]; increasing VPA,dose dependence
same,dose dependence of CD34 expression,"Human mPB CD34+ cells [4]; increasing VPA doses (1.25 mM, 2.5 mM)",slight dose dependence
"CCCCC(C)(C)[C@H](O)/C=C/[C@H]1[C@H](O)CC(=O)[C@@H]1C/C=C\CCCC(=O)O [dmPGE2, 16,16-dimethyl Prostaglandin E2]",cell viability (FIG. 3E),"Human mPB CD34+ cells [2]; extended culture, 17 days",no effect on cell viability
same,cell density / growth (FIG. 3F),Human mPB CD34+ cells [3],slight growth advantage
same,CD90 expression (FIG. 3A),"Human mPB CD34+ cells [4]; VPA 1.25 mM, CC110 media",No effect
NC(=O)c1cccnc1 [nicotinamide],"CD90 expression (percent of CD90+ cells, FIG. 2A)",Human mPB CD34+ cells [4]; VPA 1.25 mM,No effect
IL-6: cytokine added to CC110 media at 100 ng/mL,overall cell density with or without IL-6,"Human mPB CD34+ cells [3]; 100 ng/mL IL-6, VPA+Li cultures",higher overall cell density in the absence of IL-6
same,VPA-increased HSC multipotency marker expression in the presence of IL-6,Human mPB CD34+ cells [4]; 100 ng/mL IL-6,enhanced
same,expression of CD49f in the presence of IL-6,"Human mPB CD34+ cells [4]; 100 ng/mL IL-6, extended culture with VPA+Li",enhancing
